Data reported in patent US9944645B2, “Imidazotriazines and imidazopyrimidines as kinase inhibitors” (Incyte Holdings Corporation, priority 2006, dated 2018).

The compounds below were run against c-Met kinase (h-Met; histidine-tagged c-Met catalytic domain fusion protein) (Homo sapiens (Human), UniProt P08581) (assay: In Vitro c-Met Kinase Enzyme Assays). Details: phosphorylation of poly Glu-Tyr, 5 μM ATP, 25 minutes at 30° C.
Type: biochemical
How it was run: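 His-tagged c-Met catalytic domain reacted 25 min at 30° C, within the linear initial-rate range. Phosphotyrosine detected by ELISA with peroxidase-labeled anti-phospho-tyrosine antibody and TMB, OD read at 450 nm (540 nm correction); IC50 from curve fit.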

Sequence of c-Met kinase (h-Met; histidine-tagged c-Met catalytic domain fusion protein) (P08581 1078-1345): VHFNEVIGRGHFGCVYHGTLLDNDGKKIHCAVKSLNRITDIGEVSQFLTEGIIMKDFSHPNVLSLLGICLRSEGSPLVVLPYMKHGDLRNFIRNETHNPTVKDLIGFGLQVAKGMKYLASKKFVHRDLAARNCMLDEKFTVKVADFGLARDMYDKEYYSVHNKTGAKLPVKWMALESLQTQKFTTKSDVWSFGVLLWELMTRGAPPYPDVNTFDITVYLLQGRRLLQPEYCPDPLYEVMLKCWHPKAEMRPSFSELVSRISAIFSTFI

Compound | IC50 [nM]
c1ccc(CN2CCC(n3cc(-c4cnc5ncc(C6(c7ccc8ncccc8c7)CC6)n5c4)cn3)C2)cc1 (stereo not drawn) [Example 89, 6-(1-{6-[1-(1-Benzylpyrrolidin-3-yl)-1H-pyrazol-4-yl]imidazo[1,2-a]pyrimidin-3-yl}cyclopropyl)quinoline] | < 3000
O=C(NC1CC1)c1ccc(-c2cnc3ncc(C4(c5ccc6ncccc6c5)CC4)n3n2)cc1 [Example 107] | < 500
O=C(NC1CCC1)c1ccc(-c2cnc3ncc(C4(c5ccc6ncccc6c5)CC4)n3n2)cc1 [Example 108, N-Cyclobutyl-4-[7-(1-quinolin-6-ylcyclopropyl)imidazo[1,2-b][1,2,4]triazin-2-yl]benzamide] | < 500
O=C(NC1(c2ccccn2)CC1)c1ccc(-c2cnc3ncc(C4(c5ccc6ncccc6c5)CC4)n3n2)cc1 [Example 109, N-(1-Pyridin-2-ylcyclopropyl)-4-[7-(1-quinolin-6-ylcyclopropyl)imidazo[1,2-b][1,2,4]triazin-2-yl]benzamide] | < 500
CC(C)(CO)NC(=O)c1ccc(-c2cnc3ncc(C4(c5ccc6ncccc6c5)CC4)n3n2)cc1 [Example 110, N-(2-Hydroxy-1,1-dimethylethyl)-4-[7-(1-quinolin-6-ylcyclopropyl)imidazo[1,2-b][1,2,4]triazin-2-yl]benzamide] | < 500
O=C(N[C@H](CO)Cc1ccccc1)c1ccc(-c2cnc3ncc(C4(c5ccc6ncccc6c5)CC4)n3n2)cc1 [Example 111, N-[(1S)-1-Benzyl-2-hydroxyethyl]-4-[7-(1-quinolin-6-ylcyclopropyl)imidazo[1,2-b][1,2,4]triazin-2-yl]benzamide] | < 500
O=C(c1ccc(-c2cnc3ncc(C4(c5ccc6ncccc6c5)CC4)n3n2)cc1)N1CC[C@@H](O)C1 [Example 112, (3R)-1-{4-[7-(1-quinolin-6-ylcyclopropyl)imidazo[1,2-b][1,2,4]triazin-2-yl]benzoyl}pyrrolidin-3-ol] | < 500
O=C(NC1CCOCC1)c1ccc(-c2cnc3ncc(C4(c5ccc6ncccc6c5)CC4)n3n2)cc1 [Example 113, 4-(7-(1-(Quinolin-6-yl)cyclopropyl)imidazo[1,2-b][1,2,4]triazin-2-yl)-N-(tetrahydro-2H-pyran-4-yl)benzamide] | < 500
CN(C(=O)c1ccc(-c2cnc3ncc(C4(c5ccc6ncccc6c5)CC4)n3n2)cc1)C1CC1 [Example 114, N-Cyclopropyl-N-methyl-4-[7-(1-quinolin-6-ylcyclopropyl)imidazo[1,2-b][1,2,4]triazin-2-yl]benzamide] | < 500
COCC1(NC(=O)c2ccc(-c3cnc4ncc(C5(c6ccc7ncccc7c6)CC5)n4n3)cc2)CC1 [Example 115, N-[1-(Methoxymethyl)cyclopropyl]-4-[7-(1-quinolin-6-ylcyclopropyl)imidazo[1,2-b][1,2,4]triazin-2-yl]benzamide] | < 500
COCC1(NC(=O)c2ccc(-c3cnc4ncc(C5(c6ccc7ncccc7c6)CC5)n4n3)cc2)CCC1 [Example 116, N-[1-(Methoxymethyl)cyclobutyl]-4-[7-(1-quinolin-6-ylcyclopropyl)imidazo[1,2-b][1,2,4]triazin-2-yl]benzamide] | < 500
COC[C@@H](NC(=O)c1ccc(-c2cnc3ncc(C4(c5ccc6ncccc6c5)CC4)n3n2)cc1)C(C)C [Example 117] | < 500
COCC1(NC(=O)c2ccc(-c3cnc4ncc(C5(c6ccc7ncccc7c6)CC5)n4n3)cc2)CCOCC1 [Example 118] | < 500
O=C(Nc1nccs1)c1ccc(-c2cnc3ncc(C4(c5ccc6ncccc6c5)CC4)n3n2)cc1 [Example 119, 4-[7-(1-Quinolin-6-ylcyclopropyl)imidazo[1,2-b][1,2,4]triazin-2-yl]-N-1,3-thiazol-2-ylbenzamide] | < 500
C[C@H](COC(=O)N(C)C)NC(=O)c1ccc(-c2cnc3ncc(C4(c5ccc6ncccc6c5)CC4)n3n2)cc1 [Example 121] | < 500
CC(c1ccc2ncccc2c1)c1cnc2ncc(-c3ccc(C(=O)N[C@@H](C(=O)N(C)C)C(C)C)cc3)nn12 (stereo partly drawn) [Example 122, N-{(1R)-1-[(Dimethylamino)carbonyl]-2-methylpropyl}-4-[7-(1-quinolin-6-ylethyl)imidazo[1,2-b][1,2,4]triazin-2-yl]benzamide] | < 500
O=C(NC1CC1)c1ccc(-c2cnc3ncc(Cc4ccc5ncccc5c4)n3n2)cc1F [Example 123, N-Cyclopropyl-2-fluoro-4-[7-(quinolin-6-ylmethyl)imidazo[1,2-b][1,2,4]triazin-2-yl]benzamide] | < 500

Now from value to compound:

IC50 [nM] | Compound
< 500 | Cn1cc(-c2ccc(-c3cnc4ncc(C5(c6ccc7ncccc7c6)CC5)n4c3)cc2F)cn1 [Example 87, 6-(1-{6-[3-Fluoro-4-(1-methyl-1H-pyrazol-4-yl)phenyl]imidazo[1,2-a]pyrimidin-3-yl}cyclopropyl)quinoline]
< 500 | c1cnc2ccc(C3(c4cnc5ncc(-c6cnn(C7CCOC7)c6)cn45)CC3)cc2c1 (stereo not drawn) [Example 88, 6-(1-{6-[1-(Tetrahydrofuran-3-yl)-1H-pyrazol-4-yl]imidazo[1,2-a]pyrimidin-3-yl}cyclopropyl)quinoline]
< 500 | Cn1cc(-c2cnc3ncc(C4(c5ccc6ncccc6c5)CC4)n3c2)cn1 [Example 90, 6-{1-[6-(1-Methyl-1H-pyrazol-4-yl)imidazo[1,2-a]pyrimidin-3-yl]cyclopropyl}quinoline]
< 500 | CN(C)C(=O)N1CCC(n2cc(-c3cnc4ncc(C5(c6ccc7ncccc7c6)CC5)n4c3)cn2)CC1 [Example 91, N,N-Dimethyl-4-{4-[3-(1-quinolin-6-ylcyclopropyl)imidazo[1,2-a]pyrimidin-6-yl]-1H-pyrazol-1-yl}piperidine-1-carboxamide]
< 500 | OC1CCC(n2cc(-c3cnc4ncc(C5(c6ccc7ncccc7c6)CC5)n4c3)cn2)CC1 (stereo not drawn) [Example 92, 4-{4-[3-(1-Quinolin-6-ylcyclopropyl)imidazo[1,2-a]pyrimidin-6-yl]-1H-pyrazol-1-yl}cyclohexanol]
< 500 | N#CCn1cc(-c2cnc3ncc(C4(c5ccc6ncccc6c5)CC4)n3c2)cn1 [Example 93, {4-[3-(1-Quinolin-6-ylcyclopropyl)imidazo[1,2-a]pyrimidin-6-yl]-1H-pyrazol-1-yl}acetonitrile]
< 500 | CNC(=O)c1ccc(-c2ccc(-c3cnc4ncc(C5(c6ccc7ncccc7c6)CC5)n4n3)cc2)cn1 [Example 94, N-Methyl-5-{4-[7-(1-quinolin-6-ylcyclopropyl)imidazo[1,2-b][1,2,4]triazin-2-yl]phenyl}pyridine-2-carboxamide]
< 500 | c1cnc2ccc(C3(c4cnc5ncc(-c6ccc(-c7cncnc7)cc6)nn45)CC3)cc2c1 [Example 95, 6-{1-[2(4-Pyrimidin-5-yl-phenyl)imidazo[1,2-b][1,2,4]triazin-7-yl]cyclopropyl}quinoline]
< 500 | CC(=O)N1CC=C(c2ccc(-c3cnc4ncc(C5(c6ccc7ncccc7c6)CC5)n4n3)cc2)CC1 [Example 96, 6-(1-{2-[4-(1-Acetyl-1,2,3,6-tetrahydropyridin-4-yl)phenyl]imidazo[1,2-b][1,2,4]triazin-7-yl}cyclopropyl)quinoline]
< 500 | CS(=O)(=O)N1CC=C(c2ccc(-c3cnc4ncc(C5(c6ccc7ncccc7c6)CC5)n4n3)cc2)CC1 [Example 97, 6-[1-(2-{4-[1-(Methylsulfonyl)-1,2,3,6-tetrahydropyridin-4-yl]phenyl}imidazo[1,2-b][1,2,4]triazin-7-yl)cyclopropyl]quinoline]
< 500 | CN(C)C(=O)c1ccc(-c2ccc(-c3cnc4ncc(C5(c6ccc7ncccc7c6)CC5)n4n3)cc2)cn1 [Example 98, N,N-Dimethyl-5-{4-[7-(1-quinolin-6-ylcyclopropyl)imidazo[1,2-b][1,2,4]triazin-2-yl]phenyl}pyridine-2-carboxamide]
< 500 | c1cnc2ccc(C3(c4cnc5ncc(-c6ccc(-n7ccnc7)cc6)nn45)CC3)cc2c1 [Example 99, 6-(1-{2-[4-(1H-Imidazol-1-yl)phenyl]imidazo[1,2-b][1,2,4]triazin-7-yl}cyclopropyl)-quinoline]
< 500 | O=C(N[C@H]1CC[C@H](O)CC1)c1ccc(-c2cnc3ncc(C4(c5ccc6ncccc6c5)CC4)n3n2)cc1F [Example 100, 2-Fluoro-N-(trans-4-hydroxycyclohexyl)-4-[7-(1-quinolin-6-ylcyclopropyl)imidazo[1,2-b][1,2,4]triazin-2-yl]benzamide]
< 500 | O=C(NC1CC1)c1ccc(-c2cnc3ncc(C4(c5ccc6ncccc6c5)CC4)n3n2)cc1F [Example 101, N-Cyclopropyl-2-fluoro-4-[7-(1-quinolin-6-ylcyclopropyl)imidazo[1,2-b][1,2,4]triazin-2-yl]benzamide]
< 500 | CNC(=O)c1ccc(-c2cnc3ncc(C4(c5ccc6ncccc6c5)CC4)n3n2)cc1F [Example 102, 2-Fluoro-N-methyl-4-[7-(1-quinolin-6-ylcyclopropyl)imidazo[1,2-b][1,2,4]triazin-2-yl]benzamide]
< 500 | COCC1(NC(=O)c2ccc(-c3cnc4ncc(C5(c6ccc7ncccc7c6)CC5)n4n3)cc2F)CC1 [Example 103, 2-Fluoro-N-[1-(methoxymethyl)cyclopropyl]-4-[7-(1-quinolin-6-ylcyclopropyl)imidazo[1,2-b][1,2,4]triazin-2-yl]benzamide]
< 500 | NC(=O)c1ccc(-c2cnc3ncc(C4(c5ccc6ncccc6c5)CC4)n3n2)cc1F [Example 104, 2-Fluoro-4-(7-(1-(quinolin-6-yl)cyclopropyl)imidazo[1,2-b][1,2,4]triazin-2-yl)benzamide]
< 500 | O=C(NCC1CCCO1)c1ccc(-c2cnc3ncc(C4(c5ccc6ncccc6c5)CC4)n3n2)cc1 (stereo not drawn) [Example 105, 4-[7-(1-Quinolin-6-ylcyclopropyl)imidazo[1,2-b][1,2,4]triazin-2-yl]-N-(tetrahydrofuran-2-ylmethyl)benzamide]
< 500 | O=C(NCc1ccccn1)c1ccc(-c2cnc3ncc(C4(c5ccc6ncccc6c5)CC4)n3n2)cc1 [Example 106, N-(Pyridin-2-ylmethyl)-4-[7-(1-quinolin-6-ylcyclopropyl)imidazo[1,2-b][1,2,4]triazin-2-yl]benzamide]
